Measurements reported in US7179832B2, “Glycogen synthase kinase 3β inhibitor, composition and process for the preparation thereof” (Crystalgenomics, Inc., priority 2003, dated 2007).
Like-named read-outs stand apart in the source and are kept apart here.

Molecular target: GSK-3β (Homo sapiens, UniProt P49841)
Assay: Assay for GSK-3β inhibiting activity (32P-ATP, phospho-CREB peptide substrate, filter paper, CPM)
Type: biochemical
Protocol: Assay for GSK-3β inhibiting activity
First, PCR (polymerase chain reaction) was carried out using human DNA as a template as well as primers which were designed to correspond to the 3′- and 5′ ends of the polynucleotide coding human GSK-3β gene (Genbank Accession No.: L33801). The BamH1/XhoI fragment of the amplified PCR product thus obtained was inserted into the pGex vector between the BamH1 and XhoI sites, and the vector obtained was transformed into E. coli BL21(DE3). The transformed cells thus obtained was incubated in […] (1% Bacto-trypton, 0.5% yeast extract, 1% NaCl) containing ampicillin ([…]) until the optical density at 600 nm reached about 0.5. The cultured mixture was cooled to 18° C. and isopropyl β-D-thiogalacto-pyranoside (IPTG) was added thereto to a final concentration of 0.5 mM. After 16 hours, the resultant was centrifuged at 10,000×g for 10 min, the collected cells were suspended in a buffer solution (30 mM Tris-HCl (pH 7.5), 100 mM NaCl, 5% glycerol, 2 mM DTT) and the cells were disrupted using Sonic Dismembrator (Fisher, U.S.A.) in a ice bath. The resulting solution was centrifuged at 16,000 rpm for 30 minutes. […] The purified GSK-3β protein was diluted in a buffer solution (20 mM HEPES (pH 7.5), 5% glycerol, 2 mM DTT) to a final concentration of 50 mM NaCl and the resulting solution was subjected to mono S column chromatography (eluent: linear gradient from 0M to 1M NaCl buffer) using mono S column (Pharmacia Biotech, U.S.A.) equilibrated in the same buffer solution to obtain GSK-3β protein.
The reaction was stopped by adding 5 μl of 5% phosphoric acid to 25 μl of the resulting solution. The resulting mixture was centrifuged at 15,000 rpm for 10 min, 20 μl of the supernatant was added dropwise to Whatman p81 filter paper, and then, the resulting filter paper was washed with 0.5% phosphate buffer for 10 min. The filter paper was further washed 3 times and the enzymatic activity was determined by examining the extent of phospho-CREB peptide phosphorylation which is represented by the unit of count per minute (CPM), measured with a β-counter (Packard, USA).
The GSK-3β inhibiting activity was then calculated in accordance with the following equation:
[formula] wherein the blank represents a value obtained without the use of the enzyme and the compound of the present invention, and the control, in the absence of the compound of the present invention.

[1] = GSK-3β inhibiting activity, 100 nM GSK-3β protein, 100 μM phospho-CREB peptide, 100 μM ATP, 30° C. for 1 hour, read-out: IC50

Chain of GSK-3β (P49841 whole entry): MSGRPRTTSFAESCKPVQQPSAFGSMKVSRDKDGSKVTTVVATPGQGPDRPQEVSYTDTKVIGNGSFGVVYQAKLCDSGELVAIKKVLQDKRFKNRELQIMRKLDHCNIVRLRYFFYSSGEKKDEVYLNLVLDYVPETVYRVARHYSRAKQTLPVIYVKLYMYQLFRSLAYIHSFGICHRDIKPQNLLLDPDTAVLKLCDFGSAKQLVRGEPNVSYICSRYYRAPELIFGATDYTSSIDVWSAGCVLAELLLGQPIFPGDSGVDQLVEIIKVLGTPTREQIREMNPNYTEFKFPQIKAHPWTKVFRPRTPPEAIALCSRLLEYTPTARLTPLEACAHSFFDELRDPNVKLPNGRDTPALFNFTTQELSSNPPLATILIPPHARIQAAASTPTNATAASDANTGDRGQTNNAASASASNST

SMILES | IC50 [1] [µM] | IC50 (IC50 (μM)) [µM]
O=C(NCCc1ccc(N2CCOCC2)cc1)c1ccc(O)c2[nH]c(-c3ccc(F)cc3)nc12 [Compound 132] | 0.19 | 
O=C(CN1CCOCC1)Nc1ccc(CCNC(=O)c2ccc(O)c3nc(-c4ccc(F)cc4)[nH]c23)cc1 [Compound 134] |  | 0.04
CN(C)c1ccc(CCNC(=O)c2ccc(O)c3[nH]c(-c4ccc(F)cc4)nc23)cc1 [Compound 135] | > 1 | 
O=C(NCCc1ccc(OCCN2CCOCC2)cc1)c1ccc(O)c2[nH]c(-c3ccc(F)cc3)nc12 [Compound 136] | 0.24 | 
O=C(NCCc1ccccc1O)c1ccc(O)c2[nH]c(-c3ccc(F)cc3)nc12 [Compound 137] | 0.005 | 
COc1ccccc1CCNC(=O)c1ccc(O)c2[nH]c(-c3ccc(F)cc3)nc12 [Compound 138] | > 1 | 
O=C(NCCc1cccc(Br)c1)c1ccc(O)c2[nH]c(-c3ccc(F)cc3)nc12 [Compound 139] | 0.12 | 
CS(=O)(=O)Nc1ccc(CCNC(=O)c2ccc(O)c3nc(-c4ccc(F)cc4F)[nH]c23)cc1 [Compound 140] | > 1 | 
Cc1ccc(S(=O)(=O)Nc2ccc(CCNC(=O)c3ccc(O)c4[nH]c(-c5ccc(F)cc5F)nc34)cc2)cc1 [Compound 141] | 0.043 | 
CCS(=O)(=O)Nc1ccc(CCNC(=O)c2ccc(O)c3[nH]c(-c4ccc(F)cc4F)nc23)cc1 [Compound 142] | 0.001 | 
CS(=O)(=O)Nc1ccc(CCNC(=O)c2ccc(O)c3[nH]c(-c4ccc(F)cc4Cl)nc23)cc1 [Compound 143] | 0.002 | 
Cc1ccc(S(=O)(=O)Nc2ccc(CCNC(=O)c3ccc(O)c4[nH]c(-c5ccc(F)cc5Cl)nc34)cc2)cc1 [Compound 144] | 0.006 | 
CCS(=O)(=O)Nc1ccc(CCNC(=O)c2ccc(O)c3nc(-c4ccc(F)cc4Cl)[nH]c23)cc1 [Compound 145] |  | 0.002
CC(=O)Nc1ccc(CCNC(=O)c2ccc(O)c3[nH]c(-c4ccc(F)cc4Cl)nc23)cc1 [Compound 146] | 0.07 | 
O=C(NCCN1CCOCC1)c1ccc(O)c2[nH]c(-c3ccc(F)cc3Cl)nc12 [Compound 147] | 0.21 | 
CN1CCN(CCNC(=O)c2ccc(O)c3[nH]c(-c4ccc(F)cc4Cl)nc23)CC1 [Compound 148] | > 1 | 
CCCCC(=O)Nc1ccc(CCNC(=O)c2ccc(O)c3[nH]c(-c4ccc(F)cc4Cl)nc23)cc1 [Compound 149] | 0.14 | 
O=C(NCCc1ccc(O)cc1)c1ccc(O)c2[nH]c(-c3ccc(F)cc3Cl)nc12 [Compound 150] | 0.06 | 
CS(=O)(=O)Nc1ccc(NCCNC(=O)c2ccc(O)c3[nH]c(-c4ccc(F)cc4Cl)nc23)nc1 [Compound 152] | 0.24 | 

SMILES | IC50 [1] [µM] | IC50 (IC50 (μM)) [µM]
Cc1ccc(S(=O)(=O)Nc2ccc(NCCNC(=O)c3ccc(O)c4[nH]c(-c5ccc(F)cc5Cl)nc34)nc2)cc1 [Compound 153] | 0.05 | 
O=C(NCCc1c[nH]cn1)c1ccc(O)c2[nH]c(-c3ccc(F)cc3Cl)nc12 [Compound 154] | > 1 | 
CN1CCN(CC(=O)Nc2ccc(CCNC(=O)c3ccc(O)c4[nH]c(-c5ccc(F)cc5Cl)nc34)cc2)CC1 [Compound 156] | 0.28 | 
CCN1CCN(CC(=O)Nc2ccc(CCNC(=O)c3ccc(O)c4[nH]c(-c5ccc(F)cc5Cl)nc34)cc2)CC1 [Compound 157] | 0.49 | 
CN(C)CC(=O)Nc1ccc(CCNC(=O)c2ccc(O)c3[nH]c(-c4ccc(F)cc4Cl)nc23)cc1 [Compound 158] | 0.23 | 
CCN(CC)CC(=O)Nc1ccc(CCNC(=O)c2ccc(O)c3[nH]c(-c4ccc(F)cc4Cl)nc23)cc1 [Compound 159] | 0.68 | 
Cc1ccc(S(=O)(=O)Nc2ccc(CCNC(=O)c3ccc(O)c4[nH]c(-c5ccc(F)c(Cl)c5)nc34)cc2)cc1 [Compound 160] | > 1 | 
CS(=O)(=O)Nc1ccc(CCNC(=O)c2ccc(O)c3[nH]c(-c4ccc(F)c(Cl)c4)nc23)cc1 [Compound 161] | 0.09 | 
CCCCNC(=O)c1ccc(O)c2[nH]c(-c3ccccc3)nc12 [Compound 162] | 0.24 | 
NCCCNC(=O)c1ccc(O)c2[nH]c(-c3ccccc3)nc12 [Compound 163] | > 1 | 
O=C(NCCCN1CCCC1=O)c1ccc(O)c2[nH]c(-c3ccccc3)nc12 [Compound 164] | 0.84 | 
O=C(NCCCn1ccnc1)c1ccc(O)c2[nH]c(-c3ccccc3)nc12 [Compound 165] | 0.08 | 
O=C(NCCCN1CCOCC1)c1ccc(O)c2[nH]c(-c3ccccc3)nc12 [Compound 166] | > 1 | 
Cc1nccn1CCCNC(=O)c1ccc(O)c2[nH]c(-c3ccccc3)nc12 [Compound 167] | 0.1 | 
CCCCNC(=O)c1ccc(O)c2[nH]c(-c3ccc(Cl)cc3)nc12 [Compound 168] | > 1 | 
O=C(NCCCN1CCCC1=O)c1ccc(O)c2[nH]c(-c3ccc(Cl)cc3)nc12 [Compound 169] | > 1 | 
O=C(NCCCn1ccnc1)c1ccc(O)c2[nH]c(-c3ccc(Cl)cc3)nc12 [Compound 170] | 0.19 | 
O=C(NCCCN1CCOCC1)c1ccc(O)c2[nH]c(-c3ccc(Cl)cc3)nc12 [Compound 171] | > 1 | 
O=C(NCCCn1ccnc1-c1ccccc1)c1ccc(O)c2[nH]c(-c3ccc(Cl)cc3)nc12 [Compound 172] | 0.8 | 

SMILES | IC50 [1] [µM] | IC50 (IC50 (μM)) [µM]
Cc1cn(CCCNC(=O)c2ccc(O)c3[nH]c(-c4ccc(Cl)cc4)nc23)cn1 [Compound 173] | 0.1 | 
O=C(NCCCn1cnc(Cl)c1Cl)c1ccc(O)c2[nH]c(-c3ccc(Cl)cc3)nc12 [Compound 174] | 0.04 | 
CCCCNC(=O)c1ccc(O)c2[nH]c(-c3ccc(Cl)cc3Cl)nc12 [Compound 176] | 0.45 | 
O=C(NCCCN1CCCC1=O)c1ccc(O)c2[nH]c(-c3ccc(Cl)cc3Cl)nc12 [Compound 177] | 0.2 | 
O=C(NCCCn1ccnc1)c1ccc(O)c2[nH]c(-c3ccc(Cl)cc3Cl)nc12 [Compound 178] | 0.04 | 
O=C(NCCCN1CCOCC1)c1ccc(O)c2[nH]c(-c3ccc(Cl)cc3Cl)nc12 [Compound 179] | > 1 | 
O=C(NCCCn1ccnc1-c1ccccc1)c1ccc(O)c2[nH]c(-c3ccc(Cl)cc3Cl)nc12 [Compound 180] | 0.21 | 
Cc1cn(CCCNC(=O)c2ccc(O)c3[nH]c(-c4ccc(Cl)cc4Cl)nc23)cn1 [Compound 181] | 0.03 | 
O=C(NCCCn1cnc(Cl)c1Cl)c1ccc(O)c2nc(-c3ccc(Cl)cc3Cl)[nH]c12 [Compound 182] | 0.008 | 
Cc1nccn1CCCNC(=O)c1ccc(O)c2[nH]c(-c3ccc(Cl)cc3Cl)nc12 [Compound 183] | 0.06 | 
CC(C)c1nccn1CCCNC(=O)c1ccc(O)c2[nH]c(-c3ccc(Cl)cc3Cl)nc12 [Compound 184] | 0.15 | 
O=C(NCCCn1ccnc1)c1ccc(O)c2[nH]c(-c3ccc(F)cc3)nc12 [Compound 185] | > 1 | 
CC(C)c1nccn1CCCNC(=O)c1ccc(O)c2[nH]c(-c3ccc(F)cc3)nc12 [Compound 186] | 0.05 | 
Cc1cn(CCCNC(=O)c2ccc(O)c3[nH]c(-c4ccc(F)cc4)nc23)cn1 [Compound 187] | 0.01 | 
Cc1nccn1CCCNC(=O)c1ccc(O)c2[nH]c(-c3ccc(F)cc3)nc12 [Compound 188] | 0.002 | 
CCc1nccn1CCCNC(=O)c1ccc(O)c2[nH]c(-c3ccc(F)cc3)nc12 [Compound 189] | > 1 | 
O=C(NCCCn1cnc(Cl)c1Cl)c1ccc(O)c2[nH]c(-c3ccc(F)cc3)nc12 [Compound 190] | 0.006 | 
CC(C)c1nccn1CCCNC(=O)c1ccc(O)c2[nH]c(-c3ccc(F)cc3F)nc12 [Compound 191] | 0.09 | 
